Converted amounts (≈) assume the structure as drawn. The source made the active and inactive calls. The calls are words filed in the database; no cut-off is given here.
Assays:
[1] = system: Saccharomyces cerevisiae; assay: Antifungal activity against Saccharomyces cerevisiae RIA 259; type: functional, organism-based
[2] = system: Aspergillus niger; assay: Antifungal activity against Aspergillus niger INA 00760; type: functional, organism-based
[3] = system: Pseudomonas aeruginosa; assay: Antibacterial activity against Pseudomonas aeruginosa ATCC 27853; type: functional, organism-based
[4] = system: Escherichia coli; assay: Antibacterial activity against Escherichia coli ATCC 25922; type: functional, organism-based
[5] = system: Staphylococcus aureus; assay: Antibacterial activity against methicillin-resistant Staphylococcus aureus INA 00761; type: functional, organism-based
[6] = system: Leuconostoc mesenteroides; assay: Antibacterial activity against vancomycin-resistant Leuconostoc mesenteroides VKPM B-4177; type: functional
[7] = system: Staphylococcus aureus; assay: Antibacterial activity against methicillin-susceptible Staphylococcus aureus FDA 209P; type: functional, organism-based
[8] = system: Micrococcus luteus; assay: Antibacterial activity against Micrococcus luteus NCTC 8340; type: functional, organism-based
[9] = system: Bacillus mycoides; assay: Antibacterial activity against Bacillus mycoides 537; type: functional, organism-based
[10] = system: Bacillus pumilus; assay: Antibacterial activity against Bacillus pumilus NCTC 8241; type: functional, organism-based
[11] = system: Bacillus subtilis; assay: Antibacterial activity against Bacillus subtilis ATCC 6633; type: functional, organism-based
[12] = system: Mycobacterium tuberculosis; assay: Bacteriostatic activity against Mycobacterium tuberculosis H37Rv assessed as growth inhibition; type: functional
[13] = system: Mycobacterium tuberculosis; assay: Bacteriostatic activity against Mycobacterium tuberculosis H37Rv assessed as growth inhibition at 10 ug/mL relative to control; type: functional; details: read-out: GI
[14] = system: Mycobacterium tuberculosis; assay: Bacteriostatic activity against Mycobacterium tuberculosis H37Rv assessed as growth inhibition at 20 ug/mL relative to control; type: functional; details: read-out: GI
[15] = system: Mycobacterium tuberculosis; assay: Bacteriostatic activity against Mycobacterium tuberculosis H37Rv assessed as growth inhibition at 40 ug/mL relative to control; type: functional; details: read-out: GI
[16] = Cytotoxicity against human A549 cells after 72 hrs by MTT assay; type: cell-based; details: read-out: CD50
[17] = Cytotoxicity against human Jurkat cells after 72 hrs by MTT assay; type: cell-based; details: read-out: CD50
[18] = Cytotoxicity against African green monkey Vero cells after 72 hrs by MTT assay; type: cell-based; details: chlorocebus sabaeus, read-out: CD50
[19] = system: Mycobacterium tuberculosis; assay: Bacteriostatic activity against Mycobacterium tuberculosis H37Rv assessed as growth inhibition at 200 ug/mL relative to control; type: functional; details: read-out: GI
[20] = system: Mycobacterium tuberculosis; assay: Bacteriostatic activity against Mycobacterium tuberculosis H37Rv assessed as growth inhibition at 50 ug/mL relative to control; type: functional; details: read-out: GI
[21] = system: Mycobacterium tuberculosis; assay: Bacteriostatic activity against Mycobacterium tuberculosis H37Rv assessed as growth inhibition at 100 ug/mL relative to control; type: functional; details: read-out: GI
[22] = system: Mycobacterium tuberculosis; assay: Bacteriostatic activity against Mycobacterium tuberculosis H37Rv assessed as growth inhibition at 5 ug/mL relative to control; type: functional; details: read-out: GI
[23] = system: Mycobacterium tuberculosis; assay: Bacteriostatic activity against Mycobacterium tuberculosis H37Rv assessed as growth inhibition at 1 ug/mL relative to control; type: functional; details: read-out: GI
[24] = system: Leuconostoc mesenteroides; assay: Antibacterial activity against vancomycin-resistant Leuconostoc mesenteroides VKPM B-4177 at 95 ug/mL; type: functional

Compound	Activity [1]	Activity [2]	Activity [3]	Activity [4]	Activity [5]	Activity [6]	Activity [7]	Activity [8]	Activity [9]	Activity [10]	Activity [11]	MIC99 [12] [µg/mL]	inhibition of growth at 10 µg/mL [13] [%]	inhibition of growth at 20 µg/mL [14] [%]	CC50 at 72 h [16] [µg/mL]	CC50 at 72 h [17] [µg/mL]	CC50 at 72 h [18] [µg/mL]	inhibition of growth at 50 µg/mL [20] [%]	inhibition of growth at 5 µg/mL [22] [%]	other results
CCCCCCCCc1cn(Cc2cn([C@H]3C[C@H](O)[C@@H](CO)O3)c(=O)[nH]c2=O)nn1	inactive	inactive	inactive	inactive	inactive	inactive	inactive	inactive	inactive	inactive	inactive	20 (≈ 47.4 µM)	90	99	> 100	> 100	> 100	–	–	inhibition of growth at 40 µg/mL [15]: 100%
NNC(=O)c1ccncc1 [ISONIAZID]	–	–	–	–	–	–	–	–	–	–	–	0.1 (≈ 0.729 µM)	–	–	–	–	–	–	–	–
CCCCCCCCCCCCOCc1cn([C@H]2C[C@H](N)[C@@H](CO)O2)c(=O)[nH]c1=O	–	–	–	–	–	–	–	–	–	–	–	> 20	25	90	8 (≈ 18.8 µM)	7 (≈ 16.4 µM)	50 (≈ 117 µM)	–	–	–
CCCCCCCCCCOCc1cn([C@H]2C[C@H](O)[C@@H](CO)O2)c(=O)[nH]c1=O	inactive	inactive	inactive	inactive	inactive	inactive	inactive	inactive	inactive	inactive	inactive	40 (≈ 100 µM)	–	–	–	–	> 100	–	–	inhibition of growth at 40 µg/mL [15]: 99%
CCCCCCCCCCCCOCc1cn([C@H]2C[C@H](N=[N+]=[N-])[C@@H](CO)O2)c(=O)[nH]c1=O	–	–	–	–	–	–	–	–	–	–	–	200 (≈ 443 µM)	–	–	10 (≈ 22.1 µM)	8 (≈ 17.7 µM)	15 (≈ 33.2 µM)	–	–	inhibition of growth at 200 µg/mL [19]: 100%
CCCCCCCCCCCCOCc1cn([C@H]2C[C@H](O)[C@@H](CN)O2)c(=O)[nH]c1=O	–	–	–	–	–	–	–	–	–	–	–	20 (≈ 47 µM)	50	100	8 (≈ 18.8 µM)	7 (≈ 16.4 µM)	14 (≈ 32.9 µM)	100	–	inhibition of growth at 100 µg/mL [21]: 100%
CCCCCCCCc1cn(Cc2cn([C@H]3C[C@H](O)[C@@H](CO)O3)c(=O)nc2N)nn1	–	–	–	–	–	–	–	–	–	–	–	40 (≈ 95.1 µM)	–	90	> 100	> 100	> 100	–	–	inhibition of growth at 40 µg/mL [15]: 100%
CCCCCCCCCCCCOCc1cn([C@H]2C[C@H](NCC)[C@@H](CO)O2)c(=O)[nH]c1=O	–	–	–	–	–	–	–	–	–	–	–	10 (≈ 22 µM)	99	100	5 (≈ 11 µM)	5 (≈ 11 µM)	13 (≈ 28.7 µM)	100	75	inhibition of growth at 100 µg/mL [21]: 100%
CCCCCCCCCCCOCc1cn([C@H]2C[C@H](O)[C@@H](CO)O2)c(=O)[nH]c1=O	inactive	inactive	inactive	inactive	inactive	inactive	inactive	inactive	inactive	inactive	inactive	20 (≈ 48.5 µM)	–	99	90 (≈ 218 µM)	70 (≈ 170 µM)	> 100	–	–	inhibition of growth at 40 µg/mL [15]: 100%
CCCCCCCCCCCCOCc1cn([C@H]2C[C@H](O)[C@@H](CI)O2)c(=O)[nH]c1=O	–	–	–	–	–	–	–	–	–	–	–	10 (≈ 18.6 µM)	100	100	> 100	> 100	70 (≈ 130 µM)	100	90	–
CCCCCCCCCCCCOCc1cn([C@H]2C[C@H](O)[C@@H](CO)O2)c(=O)[nH]c1=O	inactive	inactive	inactive	inactive	inactive	inactive	inactive	inactive	inactive	inactive	inactive	20 (≈ 46.9 µM)	90	100	100 (≈ 234 µM)	100 (≈ 234 µM)	> 100	100	25	inhibition of growth at 100 µg/mL [21]: 100%
CCCCCCCCCCc1cn(Cc2cn([C@H]3C[C@H](O)[C@@H](CO)O3)c(=O)[nH]c2=O)nn1	inactive	inactive	inactive	inactive	inactive	inactive	inactive	inactive	inactive	inactive	inactive	10 (≈ 22.2 µM)	100	–	100 (≈ 222 µM)	100 (≈ 222 µM)	> 100	–	90	–
CCCCCCCCCCCCOCc1cn([C@H]2C[C@H](O)[C@@H](CO)O2)c(=O)nc1N	–	–	–	–	–	–	–	–	–	–	–	200 (≈ 470 µM)	–	–	45 (≈ 106 µM)	37 (≈ 86.9 µM)	> 100	–	–	inhibition of growth at 200 µg/mL [19]: 100%
CCCCCCCCCCCCOCc1cn([C@H]2C[C@H](O)[C@@H](CN=[N+]=[N-])O2)c(=O)[nH]c1=O	–	–	–	–	–	–	–	–	–	–	–	10 (≈ 22.1 µM)	99	100	20 (≈ 44.3 µM)	18 (≈ 39.9 µM)	> 100	100	75	inhibition of growth at 100 µg/mL [21]: 100%
CCCCCCCCCCCCc1cn(Cc2cn([C@H]3C[C@H](O)[C@@H](CO)O3)c(=O)nc2N)nn1	–	–	–	–	–	–	–	–	–	–	–	10 (≈ 21 µM)	99	100	100 (≈ 210 µM)	100 (≈ 210 µM)	> 100	–	75	–
CCCCCCCCCCCCCCOCc1cn([C@H]2C[C@H](O)[C@@H](CO)O2)c(=O)[nH]c1=O	–	–	–	–	–	–	–	–	–	–	–	200 (≈ 440 µM)	–	–	–	–	> 100	–	–	inhibition of growth at 200 µg/mL [19]: 100%
CO[C@H]1/C=C/O[C@@]2(C)Oc3c(C)c(O)c4c(O)c(c(/C=N/N5CCN(C)CC5)c(O)c4c3C2=O)NC(=O)/C(C)=C\C=C\[C@H](C)[C@H](O)[C@@H](C)[C@@H](O)[C@@H](C)[C@H](OC(C)=O)[C@@H]1C [RIFAMPIN]	–	–	–	–	–	–	–	–	–	–	–	1 (≈ 1.22 µM)	–	–	–	–	> 500	–	–	inhibition of growth at 1 µg/mL [23]: 100%
CCCCCCCCCCCCOCc1cn([C@@H]2C[C@H](O)[C@@H](CO)O2)c(=O)[nH]c1=O	inactive	inactive	inactive	inactive	inactive	inactive	inactive	inactive	inactive	inactive	inactive	20 (≈ 46.9 µM)	90	99	45 (≈ 105 µM)	40 (≈ 93.8 µM)	> 100	100	–	Activity [24]: Active; inhibition of growth at 100 µg/mL [21]: 100%
CCCCCCCCCCCCOCc1cn([C@H]2C[C@H](N(CC)CC)[C@@H](CO)O2)c(=O)[nH]c1=O	–	–	–	–	–	–	–	–	–	–	–	20 (≈ 41.5 µM)	75	99	5 (≈ 10.4 µM)	5 (≈ 10.4 µM)	7.5 (≈ 15.6 µM)	100	–	inhibition of growth at 100 µg/mL [21]: 100%
CCCCCCCCCCc1cn(Cc2cn([C@H]3C[C@H](O)[C@@H](CO)O3)c(=O)nc2N)nn1	–	–	–	–	–	–	–	–	–	–	–	40 (≈ 89.2 µM)	–	90	100 (≈ 223 µM)	100 (≈ 223 µM)	> 100	–	–	inhibition of growth at 40 µg/mL [15]: 100%
CC1COc2c(N3CCN(C)CC3)c(F)cc3c(=O)c(C(=O)O)cn1c23 (stereo not given) [OFLOXACIN]	–	–	–	–	–	–	–	–	–	–	–	2 (≈ 5.53 µM)	–	–	–	–	–	–	–	–
CCCCCCCCCCCCc1cn(Cc2cn([C@H]3C[C@H](O)[C@@H](CO)O3)c(=O)[nH]c2=O)nn1	inactive	inactive	inactive	inactive	inactive	inactive	inactive	inactive	inactive	inactive	inactive	10 (≈ 20.9 µM)	99	99	> 100	> 100	> 100	–	90	inhibition of growth at 40 µg/mL [15]: 100%
